Results reported in ChEMBL document CHEMBL3044701, “Synthesis, characterization and biological activity of Schiff bases derived from metronidazole” (Med Chem Res, 2012).
≈ marks a conversion by molar mass, not a printed value. Calls of active or inactive are those of the source. No cut-off for these calls is given here.

Columns and labels:
[1] = test system: Staphylococcus aureus; assay: Antibacterial activity against Staphylococcus aureus ATCC 6538P up to 1.25 mg/ml after 24 hr by broth microdilution method; format: functional, organism-based
[2] = test system: Candida albicans; assay: Antifungal activity against Candida albicans ATCC 10231 after 24 hr by broth microdilution method; format: functional; conditions: ATCC 10231, 24 h
[3] = test system: Clostridium sporogenes; assay: Antibacterial activity against Clostridium sporogenes ATCC 19404 after 24 hr by broth microdilution method; format: functional; conditions: ATCC 19404, 24 h
[4] = test system: Escherichia coli; assay: Antibacterial activity against Escherichia coli ATCC 8739 up to 1.25 mg/ml after 24 hr by broth microdilution method; format: functional, organism-based
[5] = test system: Giardia intestinalis; assay: Antigiardial activity against Giardia intestinalis WB by trypan blue assay; format: functional, organism-based; conditions: Giardia duodenalis
[6] = test system: Escherichia coli; assay: Antibacterial activity against Escherichia coli ATCC 8739 after 24 hr by broth microdilution method; format: functional; conditions: ATCC 8739, 24 h
[7] = test system: Giardia intestinalis; assay: Ratio of metronidazole IC50 to compound IC50 for Giardia intestinalis; format: functional, Giardia duodenalis
[8] = test system: Staphylococcus aureus; assay: Antibacterial activity against Staphylococcus aureus ATCC 6538P after 24 hr by broth microdilution method; format: functional
[9] = test system: Candida albicans; assay: Antifungal activity against Candida albicans ATCC 10231 up to 1.25 mg/ml after 24 hr by broth microdilution method; format: functional, organism-based

Row | MIC ([2]; read-out: MIC) [µM] | MIC [3] [µM] | MIC ([6]; read-out: MIC) [µM] | MIC ([8]; read-out: MIC) [µM] | MIC [2] [µg/mL] | MIC [6] [µg/mL] | MIC [8] [µg/mL] | SMILES | Activity [1] | Activity [4] | IC50 [5] [nM] | Ratio IC50 [7] | Activity [9]
1 | 2070 | 369 (≈ 97.5 µg/mL) | 7100 | 7100 |  |  |  | Cc1ncc([N+](=O)[O-])n1CC/N=C/c1cccs1 |  |  | 830 | 5 | 
2 |  |  |  |  | 2.9 |  |  | Clc1ccc(COC(Cn2ccnc2)c2ccc(Cl)cc2Cl)c(Cl)c1 (centres undefined) [MICONAZOLE] |  |  |  |  | 
3 |  | 376 (≈ 97.5 µg/mL) | 8460 | 8460 |  |  |  | Cc1ncc([N+](=O)[O-])n1CC/N=C/c1ccncc1 |  |  | 11200 |  | inactive
4 | 440 | 1010 (≈ 313 µg/mL) | 760 | 760 |  |  |  | Cc1ncc([N+](=O)[O-])n1CC/N=C/c1cc(Cl)ccc1O |  |  | 4320 |  | 
5 | 1000 | 1440 (≈ 392 µg/mL) | 4370 | 6890 |  |  |  | Cc1ccc(/C=N/CCn2c([N+](=O)[O-])cnc2C)cc1 |  |  | 1360 |  | 

The remaining lines, values behind:

Row | SMILES | MIC ([2]; read-out: MIC) [µM] | MIC [3] [µM] | MIC ([6]; read-out: MIC) [µM] | MIC ([8]; read-out: MIC) [µM] | MIC [2] [µg/mL] | MIC [6] [µg/mL] | MIC [8] [µg/mL] | Activity [1] | Activity [4] | IC50 [5] [nM] | Ratio IC50 [7] | Activity [9]
6 | Cc1ncc([N+](=O)[O-])n1CC/N=C/c1ccc([N+](=O)[O-])cc1 | 450 | 257 (≈ 77.9 µg/mL) |  |  |  |  |  | inactive | inactive | 1830 |  | 
7 | Cc1ncc([N+](=O)[O-])n1CC/N=C/c1ccccc1Cl | 170 | 267 (≈ 78.2 µg/mL) | 2140 | 2670 |  |  |  |  |  | 7290 |  | 
8 | COc1ccc(/C=N/CCn2c([N+](=O)[O-])cnc2C)cc1 | 340 | 203 (≈ 58.5 µg/mL) | 4340 | 4340 |  |  |  |  |  | 2260 |  | 
9 | CC1(C)S[C@@H]2[C@H](NC(=O)[C@H](N)c3ccccc3)C(=O)N2[C@H]1C(=O)O [AMPICILLIN] |  |  |  |  |  | 2.3 | 0.036 |  |  |  |  | 
10 | Cc1ncc([N+](=O)[O-])n1CC/N=C/c1ccc(F)cc1 | 1990 | 1130 (≈ 313 µg/mL) | 4300 | 5090 |  |  |  |  |  | 2390 |  | 
11 | Cc1ncc([N+](=O)[O-])n1CC/N=C/c1ccccc1O | 360 | 285 (≈ 78.2 µg/mL) | 2240 | 2000 |  |  |  |  |  | 2150 |  | 
12 | Cc1ncc([N+](=O)[O-])n1CCO [METRONIDAZOLE] |  | 45.6 (≈ 7.8 µg/mL) | 5480 | 2050 |  |  |  |  |  | 3740 |  | inactive
13 | Cc1ncc([N+](=O)[O-])n1CC/N=C/c1ccco1 |  | 236 (≈ 58.6 µg/mL) | 8850 | 8850 |  |  |  |  |  | 2780 |  | inactive
